Test results taken from patent publication US8779154B2, “Fused ring compounds for inflammation and immune-related uses” (priority 2006, dated 2014).

test system: IL-2 production; assay: Inhibition of IL-2 production in PHA-activated Jurkat cells (ELISA); format: cell-based; conditions: Homo sapiens, Jurkat, 20 h, PHA 2.5 μg/mL, IL-2 ELISA
Experimental: Jurkat cells were placed in a 96 well plate (0.5 million cells per well in 1% FBS medium) then a test compound of this invention was added at different concentrations. After 10 minutes, the cells were activated with PHA (final concentration 2.5 μg/mL) and incubated for 20 hours at 37° C. under CO2. The final volume was 200 μL. Following incubation, the cells were centrifuged and the supernatants collected and stored at −70° C. prior to assaying for IL-2 production. A commercial ELISA kit (IL-2 Eli-pair, Diaclone Research, Besancon, France) was used to detect production of IL-2, from which dose response curves were obtained. The IC50 value was calculated as the concentration at which 50% of maximum IL-2 production after stimulation was inhibited versus a non-stimulation control.

| SMILES | IC50 |
| --- | --- |
| COc1ccc2c(c1)-c1cnc(NC(=O)c3ccncc3C)nc1CCO2 [Compound 95] | > 1000 nM |
| CN1Cc2ccc(Br)cc2-c2sc(NC(=O)c3c(F)cccc3F)nc2C1 [Compound 138] | 250 to 500 nM |
| Cc1csc(-c2cccc3c2CCCc2nc(NC(=O)c4c(F)cccc4F)sc2-3)n1 [Compound 71] | 250 to 500 nM |
| COc1cc(-c2ccc3c(c2)-c2sc(C(=O)Nc4c(F)cccc4F)nc2CCC3)ccn1 [Compound 119] | 100 to 250 nM |
| COc1ccc2c(c1)-c1sc(NC(=O)c3ccncc3F)nc1CCC2 [Compound 3] | > 1000 nM |
| O=C(Nc1nc2c(s1)-c1ccccc1CCC2)c1c(F)cccc1F [Compound 16] | 250 to 500 nM |
| N#Cc1ccc2c(c1)-c1sc(NC(=O)c3c(F)cccc3F)nc1CCC2 [Compound 80] | > 1000 nM |
| COc1ccc2c(c1)-c1cnc(NC(=O)c3c(F)cccc3F)nc1CCC2 [Compound 93] | 500 to 1000 nM |
| O=C(Nc1nc2c(s1)-c1ccc(-c3nnn[nH]3)cc1CCC2)c1c(F)cccc1F [Compound 77] | > 1000 nM |
| O=C1NCc2ccc(Br)cc2-c2sc(NC(=O)c3c(F)cccc3F)nc21 [Compound 136] | > 1000 nM |
| O=C(Nc1nc2c(s1)-c1ccc(-n3ccnc3)cc1CCC2)c1c(F)cccc1F [Compound 74] | 100 to 250 nM |
| COc1ccc2c(c1)-c1sc(NC(=O)c3ccncc3F)nc1CCO2 [Compound 9] | > 1000 nM |
| COc1ccc2c(c1)-c1sc(C(=O)Nc3c(F)cccc3F)nc1CCO2 [Compound 33] | 100 to 250 nM |
| CN1Cc2ccc(Br)cc2-c2sc(NC(=O)c3c(F)cccc3F)nc2C1=O [Compound 135] | > 1000 nM |
| O=C(Nc1nc2c(=O)oc3ccc(C(F)(F)F)cc3c2s1)c1c(F)cccc1F [Compound 1] | > 1000 nM |
| COc1cccc2c1CCCc1nc(NC(=O)c3ccncc3F)sc1-2 [Compound 14] | 100 to 250 nM |
| CC/N=C(/Nc1c(F)cccc1F)c1nc2c(s1)-c1cc(OC)ccc1CCC2 [Compound 149] | 100 to 250 nM |
| O=C(Nc1nc2c(s1)-c1cc(Br)sc1CCC2)c1c(F)cccc1F [Compound 84] | > 1000 nM |
| Fc1cccc(F)c1CNc1nc2c(s1)-c1cccc(-c3cnco3)c1CCC2 [Compound 69] | 250 to 500 nM |
| CCOC(=O)N(C(=O)c1nc2c(s1)-c1cc(OC)ccc1CCC2)c1c(F)cccc1F [Compound 143] | 100 to 250 nM |
| COc1ccc2c(c1)-c1sc(NC(=O)Nc3c(F)cccc3F)nc1CCC2 [Compound 154] | 500 to 1000 nM |
| COc1ccc2c(c1)-c1cnc(NC(=O)c3c(F)cccc3F)nc1CCO2 [Compound 94] | > 1000 nM |
| CN1Cc2ccc(Br)cc2-c2sc(C(=O)Nc3c(F)cccc3F)nc2C1=O [Compound 140] | > 1000 nM |
| O=C(Nc1ccc2c(c1)CCCc1cnc(-c3ccccn3)nc1-2)c1c(F)cccc1F [Compound 106] | 500 to 1000 nM |

Continued, values first:

| IC50 | SMILES |
| --- | --- |
| 30 to 100 nM | O=C(Nc1nc2c(s1)-c1ccc(-c3ncco3)cc1CCC2)c1c(F)cccc1F [Compound 76] |
| 30 to 100 nM | O=C(Nc1ccc2c(c1)CCCc1sc(-c3cccnc3)nc1-2)c1c(F)cccc1F [Compound 155] |
| ≤ 30 nM | COc1cccc2c1CCCc1nc(NC(=O)c3c(F)cccc3F)sc1-2 [Compound 12] |
| ≤ 30 nM | O=C(Nc1c(F)cccc1F)c1nc2c(s1)-c1cc(-c3cnco3)ccc1CCC2 [Compound 19] |
| 30 to 100 nM | Nc1ccc(-c2ccc3c(c2)-c2sc(C(=O)Nc4c(F)cccc4F)nc2CCC3)cn1 [Compound 115] |
| 30 to 100 nM | O=C(Nc1c(F)cccc1F)c1nc2c(s1)-c1cc(-c3ccncc3)ccc1CCC2 [Compound 125] |
| 30 to 100 nM | N#Cc1ccc2c(c1)CCCc1nc(NC(=O)c3c(F)cccc3F)sc1-2 [Compound 59] |
| ≤ 30 nM | Cn1nnnc1-c1ccc2c(c1)CCCc1nc(NC(=O)c3c(F)cccc3F)sc1-2 [Compound 78] |
| 30 to 100 nM | O=C(Nc1nc2c(s1)-c1ccc(I)cc1CCC2)c1c(F)cccc1F [Compound 72] |
| 30 to 100 nM | O=C(Nc1nc2c(s1)-c1ccncc1CCC2)c1c(F)cccc1F [Compound 87] |
| 30 to 100 nM | O=C(Nc1nc2c(s1)-c1cccc(O)c1CCC2)c1c(F)cccc1F [Compound 51] |
| ≤ 30 nM | COc1ccc2c(c1)-c1sc(C(=O)Nc3c(F)cccc3F)nc1CCC2 [Compound 5] |
| ≤ 30 nM | COC(=O)c1ccc2c(c1)-c1sc(C(=O)Nc3c(F)cccc3F)nc1CCC2 [Compound 38] |
| 30 to 100 nM | COc1ccc2c(c1)-c1sc(NC(=O)c3c(F)cccc3F)nc1CCC2 [Compound 8] |
| 30 to 100 nM | O=C(Nc1c(F)cccc1F)c1nc2c(s1)-c1cc(Br)ccc1CCC2 [Compound 18] |
| 30 to 100 nM | Cc1nc(-c2ccc3c(c2)CCCc2nc(NC(=O)c4c(F)cccc4F)sc2-3)no1 [Compound 60] |
| ≤ 30 nM | Cn1nnnc1-c1ccc2c(c1)-c1sc(C(=O)Nc3c(F)cccc3F)nc1CCC2 [Compound 39] |
